Laboratory results as given in US11390868B2, “Treatment of filaggrin (FLG) related diseases by modulation of FLG expression and activity” (CuRNA, Inc., priority 2009, dated 2022).
Where a name gives a salt, the structure may show the parent alone. Read-outs that look alike come from different tables or passages of the source.

Legend:
[1] = tested on: FLG Natural Antisense Transcripts in primary keratinocytes; test: Real time PCR of FLG Natural Antisense Transcripts after treatment of primary keratinocytes with small compounds; assay type: cell-based; conditions: small compounds 1 uM, dosed twice, 24 h after second dosing, vs vehicle control (FIG. 5)
Procedure: Primary keratinocytes (from Promocell) were grown in a growth media (Keratinocyte Growth Media, Promocell cat #C-2011) at 37° C. with 5% CO2. One day before the experiment the cells were replated at approximately 5×10^4/ml (or about ⅓ dilution from 90% confluency) into 24-well collagen-coated plates (Beckton Dickinson BioCoat plates cat #35 6408) and incubated at 37° C. and 5% CO2 overnight. On the day of the experiment the media in the 24-well plates was changed to 1 ml fresh growth media. Small compounds were diluted in DMSO to the concentration of 1000 uM. On the day of the experiment this solution was diluted 1:100 in fresh growth media. Pure DMSO was diluted in media at the same ratio […] to treat vehicle control samples. To dose one well, […] of the compound or pure DMSO solution was added directly to well of a 24-well plate. The final concentration of compounds was 1 uM. Dosing volume was adjusted if a different concentration of compound was desired. After dosing the plates were incubated overnight at 37° C., 5% CO2. 24 h after addition of small compounds the media was replaced with fresh growth media and the dosing was repeated as described above. 24 h after second dosing RNA was extracted from the cells using SV Total RNA Isolation System from Promega (cat #Z3105) following the manufacturers' instructions. 600 ng of total RNA was added to the reverse transcription reaction performed using High Capacity cDNA kit from Applied Biosystems (cat #4368813) as described in the manufacturer's protocol. The cDNA from this reverse transcription reaction was used to monitor gene expression by real time PCR using BI Taqman Gene Expression Mix (cat #4369510) and primers/probes designed by AB (for example, assay ID #Hs00856927_gl for FLG). The following PCR cycle was used: 50° C. for 2 min, 95° C. for 10 min, 40 cycles of (95° C. for 15 seconds, 60° C. for […]) using StepOne thermal cycler (ABI). […] Fold change in gene expression after treatment with small compounds was calculated based on the difference in 18S-normalized dCt values between treated and mock-transfected samples.

TNF-alpha = conditions: several case studies and a pilot study; cited from earlier work
[2] = cited from earlier work; for solubility in ethanol / alcohol: anhydrous ethanol or alcohol
[3] = cited from earlier work
[4] = cited from earlier work; remark: listed apart in the source
[5] = tested on: patients with severe head trauma; conditions: peripheral vein injection plus standard procedures; cited from earlier work

CC(NC(C)(C)C)C(=O)c1cccc(Cl)c1.Cl (racemic) [Bupropion, (±)-1-(3-chlorophenyl)-2-[(1,1-dimethylethyl)amino]-1-propanone hydrochloride]
levels of FLG Natural Antisense Transcripts [1]: significantly decreased
level of inflammatory mediator TNF-alpha (TNF-alpha): lowers
solubility in water [2]: highly soluble

CCc1ccc(CCOc2ccc(CC3SC(=O)NC3=O)cc2)nc1 (racemic) [Pioglitazone hydrochloride, [(±)-5-[[4-[2-(5-ethyl-2-pyridinyl)ethoxy]phenyl]methyl]-2,4-]thiazolidinedione monohydrochloride]
solubility in N,N-dimethylformamide ([2]; N,N-dimethylformamide): soluble
solubility in acetone [2]: very slightly soluble
solubility in acetonitrile ([2]; acetonitrile): very slightly soluble
solubility in ethanol / alcohol [2]: slightly soluble
solubility in ether ([2]; ether): insoluble
solubility in water [2]: practically insoluble

COC(=O)C1=C(C)NC(C)=C(C(=O)O[C@@H]2CCCN(Cc3ccccc3)C2)[C@@H]1c1cccc([N+](=O)[O-])c1.Cl (relative stereo) [Bendipine, (4R)-rel-1,4-Dihydro-2,6-dimethyl-4-(3-nitrophenyl)-3,5-pyridinedicarboxylic acid 3-methyl 5-[(3R)-1-(phenylmethyl)-3-piperidinyl]ester hydrochloride]
levels of FLG Natural Antisense Transcripts [1]: significantly decreased

COC(=O)C1=C(C)NC(C)=C(C(=O)OC(C)C)C1c1cccc2nonc12 (stereo not drawn) [Isradipine, 3,5-Pyridinedicarboxylic acid, 4-(4-benzofurazanyl)-1,4-dihydro-2,6-dimethyl-, methyl 1-methylethyl ester]
solubility in acetone [2]: freely soluble
solubility in chloroform [2]: freely soluble
solubility in ethanol / alcohol [2]: soluble
solubility in methylene chloride ([2]; methylene chloride): freely soluble
solubility in water ([2]; 37° C.): < 10 µg/mL
solubility in water [2]: practically insoluble

O=C([O-])CCc1nc(-c2ccccc2)c(-c2ccccc2)o1.[K+] [Oxaprozin potassium, 4,5-diphenyl-2-oxazolepropionic acid, potassium salt]
PK in water ([3]; in water): 9.7
solubility in ethanol / alcohol [2]: slightly soluble
solubility in water [2]: very soluble

CN1C(C(=O)Nc2ccccn2)=C(O)c2ccccc2S1(=O)=O [Piroxicam, 4-hydroxyl-2-methyl-N-2-pyridinyl-2H-1,2,-benzothiazine-3-carboxamide 1,1-dioxide]
pKa of weak basic pyridyl nitrogen ([3]; pyridyl nitrogen): 1.8
solubility in aqueous solutions ([2]; aqueous solutions): slightly soluble
solubility in dilute acid ([2]; dilute acid): sparingly soluble
solubility in ethanol / alcohol [2]: slightly soluble
solubility in most organic solvents ([2]; most organic solvents): sparingly soluble
solubility in water [2]: sparingly soluble

CC1(C)O[C@@H]2[C@@H](CO[C@@]3(COS(N)(=O)=O)OC(C)(C)O[C@@H]23)O1 [Topiramate, 2,3:4,5-Di-O-isopropylidene-β-D-fructopyranose sulfamate]
levels of FLG Natural Antisense Transcripts [1]: significantly decreased
pH of saturated solution [4]: 6.3
solubility in acetone [2]: freely soluble
solubility in alkaline solutions ([2]; alkaline solutions containing sodium hydroxide or sodium phosphate, pH of 9 to 10): most soluble
solubility in chloroform [2]: freely soluble
solubility in dimethyl sulfoxide ([2]; dimethyl sulfoxide): freely soluble
solubility in ethanol / alcohol [2]: freely soluble

COCCOC(=O)C1=C(C)NC(C)=C(C(=O)OC(C)C)C1c1cccc([N+](=O)[O-])c1 (stereo not drawn) [nimodipine, isopropyl 2-methoxyethyl 1,4-dihydro-2,6-dimethyl-4-(m-nitrophenyl)-3,5-pyridinedicarboxylate]
Glasgow outcome score values [5]: higher
cerebral metabolism [5]: improved
cerebral perfusion pressure [5]: significantly higher
intracranial pressure [5]: lower
jugular glucose [5]: lower
jugular lactate [5]: lower
jugular venous oxygen saturation [5]: significantly higher
